From patent US12023319B2, “Carboxylic acid aromatic amides” (priority 2016, dated 2024)
One block for each compound: values may come before it.

Legend:
[1] = cited from earlier work
[2] = cited from earlier work; remark: listed apart in the source
[3] = cited from earlier work; remark: listed apart in the source
[4] = target: T1, human B1R (Homo sapiens, UniProt P46663); settings: human B1R-expressing CHO cells; cited from earlier work
T1 construct: host or cells: CHO cells
T1 sequence (P46663 1-353): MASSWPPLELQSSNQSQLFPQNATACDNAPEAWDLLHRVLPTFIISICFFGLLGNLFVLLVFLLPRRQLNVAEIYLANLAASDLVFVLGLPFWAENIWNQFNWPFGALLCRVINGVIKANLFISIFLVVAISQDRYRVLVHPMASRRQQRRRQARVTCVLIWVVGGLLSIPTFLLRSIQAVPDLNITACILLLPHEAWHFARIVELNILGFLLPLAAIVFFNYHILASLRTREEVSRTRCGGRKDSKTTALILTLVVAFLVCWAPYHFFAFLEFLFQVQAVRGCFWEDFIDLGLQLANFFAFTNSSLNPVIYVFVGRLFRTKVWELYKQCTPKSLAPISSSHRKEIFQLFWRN

[5] = target: T2, human Bradykinin B1 receptor (Homo sapiens, UniProt P46663); test: Calcium flux assay (FLIPR), CHO-K1 cells expressing human Bradykinin B1 receptor, absence of 0.1% BSA (hB1 free IC50); format: cell-based; settings: absence of 0.1% BSA in assay buffer
T2 construct: host or cells: CHO-K1
T2 sequence (P46663 1-353): T1 sequence (P46663 1-353)
Procedure, shortened: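 CHO-K1 hB1-D1 cells, dye-loaded, given compounds (8 concentrations, triplicate, 1% DMSO) 30 min at 28° C, then stimulated with selective B1 agonist peptide; Ca2+ fluorescence read at 538 nm on FLIPR. Peak response normalised to DMSO and 20 µM Lys-(Des-Arg-Leu)-Bradykinin full inhibition; IC50 fitted.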

[6] = target: T3, native human Bradykinin B1 receptor (Homo sapiens, UniProt P46663); test: Calcium flux assay (FLIPR) with IMR-90 human fibroblasts expressing Bradykinin B1 receptor after IL-1beta induction (hB1 IMR-90); format: cell-based; settings: IMR-90 human fibroblasts after IL-1beta induction, read-out: hB1 IMR90 IC50
T3 construct: which express native human Bradykinin B1 receptor after induction with human IL-1beta; Coriell Institute; host or cells: IMR-90 human foetal lung fibroblasts, induced with human IL-1beta
T3 sequence (P46663 1-353): T1 sequence (P46663 1-353)
Description: Calcium Flux Assay (FLIPR) with Human Fibroblasts Expressing Bradykinin B1 Receptor (hB1 IMR-90)
The Calcium flux Assay was carried out utilising IMR-90 human foetal lung fibroblasts (American Type Culture Collection, Rockville, MD; and Coriell Institute, Camden, New Jersey), which express native human Bradykinin B1 receptor after induction with human IL-1beta.
The fibroblasts were cultured in complete growth media comprised of Dulbecco's modified Eagle's medium (DMEM; Sigma) containing 10% foetal bovine serum, 4 mM L-glutamine, and 1% nonessential amino acids. The cells were maintained in a humidified atmosphere with 5% CO2 at 37° C. and were sub-cultured at a ratio of 1:3, every other day.
For the assay, IMR-90 fibroblasts were harvested using TrypLE Express (GIBCO/Invitrogen) and seeded into 384-well plates (Corning Cellbinding Surface, Cat. 3683) at a density of 15000 cells/well. The following day, cells were treated with 0.35 ng/mL human IL-1beta in 10% FBS/MEM for 3 h to up-regulate Bradykinin B1 receptor. Induced cells were loaded with fluorescent calcium indicator by incubation with 2.5 μM Fluo-4/AM (Invitrogen) at 37° C., 5% CO2 for 2 h in the presence of 2.5 mM probenecid in 1% FBS/MEM. […] Compound examples were assayed at 8 concentrations in triplicate. […] A peptide antagonist Lys-(Des-Arg-Leu)-Bradykinin (Bachem, Brackley) at 20 µM was used to determine the full inhibition as control. IC50 values were determined by the same way described for the FLI PR assay with recombinant cells.

[7] = system: Male Sprague Dawley rats; test: Rat CFA in vivo model (mechanical hyperalgesia, paw withdrawal threshold); settings: for Paw withdrawal threshold 2 hours post-compound: 2 hours post-compound (Table 5)
Description: Male Sprague Dawley rats were used. Mechanical hyperalgesia was induced by injecting 25 μL of Complete Freund's Adjuvant (CFA) into the plantar surface of one hind paw. Mechanical hyperalgesia was measured using the Pressure Application Measurement apparatus (Ugo Basile, Gemonio, Italy). Briefly, a linearly increasing pressure was applied to an area of ˜50 mm^2 of the plantar side of the hind paw until a behavioural response (paw withdrawal) was observed or until the pressure reached 1000 gf. The pressure at which the behavioural response occurred was recorded as the “Paw Withdrawal Threshold” (PWT). Both CFA-injected and contralateral PWTs were determined for each rat, in each treatment group and at each time point of the studies. The Compound Examples were administered orally in a vehicle of dimethylsulfoxide (DMSO), Polyethylenglycol (PEG) and 2-hydroxypropyl-beta-cyclodextrin (HPCD) (v/v/v=3:20:77). Rats received a first dose of […] of Compound Example per kg body weight 1 hour before CFA injection and a second dose 24 hours after the CFA injection. Mechanical hyperalgesia testing was performed approximately 2 hours before CFA injection, then 2 and 4 hours after the second dose of Compound Example (i.e. 26 and 28 hours after CFA treatment). Data were expressed as the mean±S.D. Area Under the Curve (AUC) of PWTs (defined in table 3 as “AUC of Paw withdrawal threshold (AUC 0-4 hours) post-vehicle” with respect to vehicle group or “AUC of Paw withdrawal threshold (AUC 0-4 hours) post-drug” with respect to Compound Example). Data were analysed by performing a one-way ANOVA followed by a Dunnett's post hoc test. For p values less than 0.05 the results were deemed to be statistically significant.

[8] = due to metabolic lability; cited from earlier work

Compound: C[C@@H]1CC[C@H](C)N1C(=O)c1ccc([C@@H](C)NC(=O)C2(NC(=O)c3cc(F)cc(C(F)(F)F)c3)CC2)c(F)c1
pharmacokinetic profile in rat [1]: reasonable | human metabolic stability [2]: poor | aqueous solubility [3]: reasonable

Compound: COC(=O)c1c(Cl)cccc1N1CCC(CNC(=O)C2(NC(=O)C(F)(F)F)CC2)CC1
binding affinity [4]: highest

IC50 [5]: 7 nM | IC50 [6]: 2.8 nM
Compound: O=C(O)c1cc(NC(=O)C2(c3ccc(OC(F)(F)F)cc3F)CC2)cc(F)c1-c1cnn(C2CCC2)c1 [Example 43, 2-(1-Cyclobutyl-1H-pyrazol-4-yl)-3-fluoro-5-[({1-[2-fluoro-4-(trifluoromethoxy)phenyl]cyclopropyl}carbonyl)amino]benzoic acid]
Paw withdrawal threshold 4 hours post-compound ([7]; 0.75 mg/kg p.o.): 599 ± 28 gf (ns) | Paw withdrawal threshold 4 hours post-compound ([7]; 3 mg/kg p.o.): 610 ± 21 gf (ns) | Paw withdrawal threshold 4 hours post-compound ([7]; 15 mg/kg p.o.): 709 ± 18 gf (****)

IC50 [5]: 47 nM | IC50 [6]: 28 nM
Compound: CC(C)n1cc(-c2ccc(NC(=O)C3(c4ccc(OC(F)(F)F)cc4F)CC3)cc2C(=O)O)cn1 [Example 71, 5-[({1-[2-Fluoro-4-(trifluoromethoxy)phenyl]cyclopropyl}carbonyl)amino]-2-[1-(propan-2-yl)-1H-pyrazol-4-yl]benzoic acid]
Paw withdrawal threshold 2 hours post-compound ([7]; 0.75 mg/kg p.o.): 591 ± 20 gf (ns) | Paw withdrawal threshold 2 hours post-compound ([7]; 3 mg/kg p.o.): 628 ± 17 gf (ns) | Paw withdrawal threshold 2 hours post-compound ([7]; 10 mg/kg p.o.): 742 ± 49 gf (****)

Compound: C[C@@H](NC(=O)C1(NC(=O)C(F)(F)F)CC1)c1ccc(-c2cccc(Cl)c2C(=O)O)cc1F [MK-0686]
pharmacokinetic profile [8]: suboptimal
